Values of other authors in US20040071803A1, “Process for preparation of anti-diabetic compositions from banyan bark” (priority 2002, published 2004).

Tests used:
[1] = test system: alloxan induced diabetic rats; conditions: single dose of 250 mg/kg or long term 100 mg/Kg/day; mild but not severe diabetes (Cherian et. al. 1992)

Row | Compound | Antidiabetic effect in alloxan induced diabetic rats [1] | Effect on severely diabetic rabbits (alloxan diabetic rabbits; fasting blood glucose (FBG) of 250 mg/dl or above (Augusti 1975)) | Hypoglycemic activity relative to tolbutamide (alloxan diabetic rabbits; normal and mildly diabetic rabbits (Augusti 1975))
1 | CC1OC(Oc2cc3c(O)cc(O)cc3[o+]c2-c2ccc(O)cc2)C(O)C(O)C1O (stereo not drawn) [pelargonidin 3-0-α-rhamnoside] | antidiabetic effect | – | –
2 | Leucocyanidin 3-0-β D-galactosyl cellobioside | antidiabetic effect | – | –
3 | bengalinoside | – | did not have any effect | half as active as tolbutamide
